In patent US7012089B2, “[1,4]Diazocino[7,8,1-hi]indole derivatives as antipsychotic and antiobesity agents” (Wyeth, priority 2002, dated 2006):
Structures can show the parent of a compound that is named as a salt. Where two headings read alike, the source gives them in different places.

Experiments:
[1] = target: T1, human 5-HT2C receptor (Homo sapiens, UniProt P28335); assay: 5-HT2C receptor-stimulated calcium mobilization (FLIPR) in CHO cells; format: cell-based; details: for Emax: CHO, read-out: 5-HT2C Function Emax (%)
T1 sequence (P28335 33-458): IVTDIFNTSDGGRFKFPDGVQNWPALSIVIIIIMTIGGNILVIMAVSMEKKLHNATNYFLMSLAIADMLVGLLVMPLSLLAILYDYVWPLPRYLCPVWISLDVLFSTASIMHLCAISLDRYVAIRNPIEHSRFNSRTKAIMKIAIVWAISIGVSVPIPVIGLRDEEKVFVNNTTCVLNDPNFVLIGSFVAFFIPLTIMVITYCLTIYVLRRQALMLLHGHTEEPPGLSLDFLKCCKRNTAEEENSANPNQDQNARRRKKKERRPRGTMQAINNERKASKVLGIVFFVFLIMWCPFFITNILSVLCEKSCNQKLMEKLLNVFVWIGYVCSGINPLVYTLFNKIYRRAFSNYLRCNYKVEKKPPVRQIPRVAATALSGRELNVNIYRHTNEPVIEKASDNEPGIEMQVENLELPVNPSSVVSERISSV

[2] = target: T2, human 5-hydroxytryptamine-2C (h-5-HT2C) receptor (Homo sapiens, UniProt P28335); assay: [125I]DOI binding to membranes of CHO cells expressing the h-5-HT2C receptor; details: 5-HT2c Affinity KI (nM), displacement of [125I]DOI, CHO cell membranes
T2 sequence (P28335 33-458): T1 sequence (P28335 33-458)

[3] = calcium mobilization, CHO cells stably expressing human 5-HT2C, read-out: 5-HT2C Function EC50

Row | SMILES | melting point [°C] | also measured
1 | Clc1ccc2c3c1c1c(n3CCNCC2)CCCC1 (as salt: fumarate) [Example 39, 8-Chloro-2,3,4,5,9,10,11,12-octahydro-1H-[1,4]diazocino[7,8,1-jk]carbazole] | 199 to 201 | 
2 | CN1CCc2cccc3c2N(CC1)C1CCSCC31 (centres unmarked) (as salt: fumarate) [Example 44, 3-Methyl-2,3,4,5,9,10,11,12-octahydro-1H,9H-[1,4]diazocino[7,8,1-hi]thiopyrano[4,3-b]indole] | 187 to 189 | 
3 | Clc1ccc2c3c1[C@H]1CCCC[C@H]1N3CCNCC2 (single isomer, unassigned) (as salt: fumarate) [Example 42, (+)-(8bR*,12aR*)-8-Chloro-2,3,4,5,8b,9,10,11,12,12a-decahydro-1H-[1,4]diazocino[7,8,1-jk]carbazole] | 170 to 173 | 
4 | Clc1ccc2c3c1C1CCCCC1N3CCNCC2 (centres unmarked) (as salt: fumarate) [Example 41, 8-Chloro-2,3,4,5,8b,9,10,11,12,12a-decahydro-1H-[1,4]diazocino[7,8,1-jk]carbazole] | 199 to 200 | 
5 | CN1CCc2ccc(Cl)c3c4c(n(c23)CC1)CCC4 (as salt: fumarate) [Example 34, 8-Chloro-3-methyl-2,3,4,5,10,11-hexahydro-1H,9H-cyclopenta[b][1,4]diazocino[7,8,1-hi]indole] | 209 to 211 | 
6 | CN1CCc2cccc3c4c(n(c23)CC1)CCCCC4 (as salt: fumarate) [Example 9, 3-Methyl-2,3,4,5,10,11,12,13-octahydro-1H,9H-cyclohepta[b][1,4]diazocino[7,8,1-hi]indole] | 190 to 192 | 
7 | Fc1ccc2c3c1C1CCCCC1N3CCNCC2 (centres unmarked) (as salt: fumarate) [Example 31, 8-Fluoro-2,3,4,5,8b,9,10,11,12,12a-decahydro-1H[1,4]diazocino[7,8,1-jk]carbazole] | 189 to 190 | 
8 | CN1CCc2c(Cl)ccc3c2N(CC1)C1CCCCCC31 (centres unmarked) (as salt: fumarate) [Example 16, 6-Chloro-3-methyl-2,3,4,5,9,10,11,12,13,13a-decahydro-1H,8bH-cyclohepta[b][1,4]diazocino[7,8,1-hi]indole] | 190 to 193 | 
9 | Clc1ccc2c3c1CCNCCN3C1CCCC21 (centres unmarked) (as salt: fumarate) [Example 20, 6-Chloro-2,3,4,5,9,10,11,11a-octahydro-1H,8bH-cyclopenta[b][1,4]diazocino[7,8,1-hi]indole] | 188 to 189 | 
10 | CN1CCc2ccc(F)c3c2N(CC1)C1CCCC31 (centres unmarked) (as salt: fumarate) [Example 26, 8-Fluoro-3-methyl-2,3,4,5,9,10,11,11a-octahydro-1H,8bH-cyclopenta[b][1,4]diazocino[7,8,1-hi]indole] | 180 to 182 | 
11 | Clc1ccc2c3c1[C@H]1CCCC[C@H]1N3CCNCC2 (single isomer, unassigned) (as salt: fumarate) [Example 43, (−)-(8bR*,12aR*)-8-Chloro-2,3,4,5,8b,9,10,11,12,12a-decahydro-1H-[1,4]diazocino[7,8,1-jk]carbazole] | 168 to 171 | 
12 | CCN1CCc2c(Cl)ccc3c2N(CC1)C1CCCC31 (centres unmarked) (as salt: fumarate) [Example 21, 6-Chloro-3-ethyl-2,3,4,5,9,10,11,11a-octahydro-1H,8bH-cyclopenta[b][1,4]diazocino[7,8,1-hi]indole] | 199 to 201 | 
13 | Fc1ccc2c3c1c1c(n3CCNCC2)CCCC1 (as salt: fumarate) [Example 29, 8-Fluoro-2,3,4,5,9,10,11,12-octahydro-1H-[1,4]diazocino[7,8,1-jk]carbazole] | 177 to 179 | 
14 | CN1CCc2ccc(Cl)c3c4c(n(c23)CC1)CCCC4 (as salt: fumarate) [Example 35, 8-Chloro-3-methyl-2,3,4,5,9,10,11,12-octahydro-1H-[1,4]diazocino[7,8,1-jk]carbazole] | 212 to 214 | 
15 | CN1CCc2cccc3c2N(CC1)C1CCCC31 (centres unmarked) (as salt: fumarate) [Example 3, 3-Methyl-2,3,4,5,9,10,11,11a-octahydro-1H,8bH-cyclopenta[b][1,4]diazocino[7,8,1-hi]indole] | 159 to 161 | 
16 | c1cc2c3c(c1)C1CCCCC1N3CCNCC2 (centres unmarked) (as salt: fumarate) [Example 8, 2,3,4,5,8b,9,10,11,12,12a-Decahydro-1H-[1,4]diazocino[7,8,1-jk]carbazole] | 169 to 171 | 
17 | c1cc2c3c(c1)[C@H]1CCCC[C@H]1N3CCNCC2 (single isomer, unassigned) (as salt: fumarate) [Example 47, (+)-(8bR*,12aR*)-2,3,4,5,8b,9,10,11,12,12a-Decahydro-1H-[1,4]diazocino[7,8,1-jk]carbazole] | 139 to 140 | 

Row | SMILES | melting point [°C] | also measured
18 | CN1CCc2ccc(F)c3c2N(CC1)C1CCCCC31 (centres unmarked) (as salt: fumarate) [Example 27, 8-Fluoro-3-methyl-2,3,4,5,8b,9,10,11,12,12a-decahydro-1H-[1,4]diazocino[7,8,1-jk]carbazole] | 168 to 170 | 
19 | Clc1ccc2c3c(n4c2c1CCNCC4)CCC3 (as salt: fumarate) [Example 17, 6-Chloro-2,3,4,5,10,11-hexahydro-1H,9H-cyclopenta[b][1,4]diazocino[7,8,1-hi]indole] | 188 to 190 | 
20 | CN1CCc2ccc(F)c3c4c(n(c23)CC1)CCCC4 (as salt: fumarate) [Example 25, 8-Fluoro-3-methyl-2,3,4,5,9,10,11,12-octahydro-1H-[1,4]diazocino[7,8,1-jk]carbazole] | 206 to 208 | 
21 | CN1CCc2ccc(Cl)c3c2N(CC1)C1CCCC31 (centres unmarked) (as salt: fumarate) [Example 36, 8-Chloro-3-methyl-2,3,4,5,9,10,11,11a-octahydro-1H,8bH-cyclopenta[b][1,4]diazocino[7,8,1-hi]indole] | 179 to 181 | 
22 | c1cc2c3c(c1)c1c(n3CCNCC2)CCC1 (as salt: fumarate) [Example 2, 2,3,4,5,10,11-Hexahydro-1H,9H-cyclopenta[b][1,4]diazocino[7,8,1-hi]indole] | 180 to 183 | 
23 | Fc1ccc2c3c1c1c(n3CCNCC2)CCC1 (as salt: fumarate) [Example 28, 8-Fluoro-2,3,4,5,10,11-hexahydro-1H,9H-cyclopenta[b][1,4]diazocino[7,8,1-hi]indole] | 199 to 200 | 
24 | CN1CCc2cccc3c2N(CC1)C1CCCCC31 (centres unmarked) (as salt: fumarate) [Example 7, 3-Methyl-2,3,4,5,8b,9,10,11,12,12a-decahydro-1H-[1,4]diazocino[7,8,1-jk]carbazole] | 150 to 153 | 
25 | CN1CCc2ccc(Cl)c3c2N(CC1)C1CCCCC31 (centres unmarked) (as salt: fumarate) [Example 37, 8-Chloro-3-methyl-2,3,4,5,8b,9,10,11,12,12a-decahydro-1H-[1,4]diazocino[7,8,1-jk]carbazole] | 178 to 180 | 
26 | c1cc2c3c(c1)c1c(n3CCNCC2)CCCCC1 (as salt: fumarate) [Example 10, 2,3,4,5,10,11,12,13-Octahydro-1H,9H-cyclohepta[b]1,4]diazocino[7,8,1-hi]indole] | 216 to 218 | 
27 | c1cc2c3c(c1)C1CCCCC1N3CCNCC2 (centres unmarked) [Example 8, 2,3,4,5,8b,9,10,11,12,12a-Decahydro-1H-[1,4]diazocino[7,8,1-jk]carbazole] |  | EC50 [1]: 18 nM; Emax [1]: 80%; Ki [2]: 22 nM
28 | c1cc2c3c(c1)C1CCCC1N3CCNCC2 (centres unmarked) [Example 4, 2,3,4,5,9,10,11,11a-Octahydro-1H,8bH-cyclopenta[b][1,4]diazocino[7,8,1-hi]indole] |  | EC50 [1]: 18 nM; Emax [1]: 90%; Ki [2]: 31 nM
29 | Clc1ccc2c3c1c1c(n3CCNCC2)CCC1 [Example 38, 8-Chloro-2,3,4,5,10,11-hexahydro-1H,9H-cyclopenta[b][1,4]diazocino[7,8,1-hi]indole] |  | EC50 [1]: 87 nM; Emax [1]: 90%; Ki [2]: 9.3 nM
30 | Clc1ccc2c3c1C1CCCC1N3CCNCC2 (centres unmarked) [Example 40, 8-Chloro-2,3,4,5,9,10,11,11a-octahydro-1H,8bH-cyclopenta[b][1,4]diazocino[7,8,1-hi]indole] |  | EC50 [1]: 81 nM; Emax [1]: 80%; Ki [2]: 20 nM
31 | CN1CCc2ccc(F)c3c2N(CC1)C1CCCCC31 (centres unmarked) [Example 27, 8-Fluoro-3-methyl-2,3,4,5,8b,9,10,11,12,12a-decahydro-1H-[1,4]diazocino[7,8,1-jk]carbazole] |  | Emax [1]: 70%; EC50 [1, 3]: 261 nM; Ki [2]: 13 nM
32 | Fc1ccc2c3c1C1CCCCC1N3CCNCC2 (centres unmarked) [Example 31, 8-Fluoro-2,3,4,5,8b,9,10,11,12,12a-decahydro-1H[1,4]diazocino[7,8,1-jk]carbazole] |  | EC50 [1]: 87 nM; Emax [1]: 60%; Ki [2]: 8 nM
33 | Clc1ccc2c3c1c1c(n3CCNCC2)CCCC1 [Example 39, 8-Chloro-2,3,4,5,9,10,11,12-octahydro-1H-[1,4]diazocino[7,8,1-jk]carbazole] |  | EC50 [1]: 48 nM; Emax [1]: 80%; Ki [2]: 2 nM
34 | CN1CCc2cccc3c4c(n(c23)CC1)CCCCC4 [Example 9, 3-Methyl-2,3,4,5,10,11,12,13-octahydro-1H,9H-cyclohepta[b][1,4]diazocino[7,8,1-hi]indole] |  | Emax [1]: 25%; EC50 [1, 3]: 275 nM; Ki [2]: 19 nM
